The text below walks through data of paper PMC3914206.

Common to all, as to assay type: binding
Conditions in all cases: Compound Concentration 10 µM

Test [1] addresses T1, panel of 442 kinases (Homo sapiens, UniProt O15197).
T1 construct: purchased KINOMEscan
T1 sequence (O15197 32-1021): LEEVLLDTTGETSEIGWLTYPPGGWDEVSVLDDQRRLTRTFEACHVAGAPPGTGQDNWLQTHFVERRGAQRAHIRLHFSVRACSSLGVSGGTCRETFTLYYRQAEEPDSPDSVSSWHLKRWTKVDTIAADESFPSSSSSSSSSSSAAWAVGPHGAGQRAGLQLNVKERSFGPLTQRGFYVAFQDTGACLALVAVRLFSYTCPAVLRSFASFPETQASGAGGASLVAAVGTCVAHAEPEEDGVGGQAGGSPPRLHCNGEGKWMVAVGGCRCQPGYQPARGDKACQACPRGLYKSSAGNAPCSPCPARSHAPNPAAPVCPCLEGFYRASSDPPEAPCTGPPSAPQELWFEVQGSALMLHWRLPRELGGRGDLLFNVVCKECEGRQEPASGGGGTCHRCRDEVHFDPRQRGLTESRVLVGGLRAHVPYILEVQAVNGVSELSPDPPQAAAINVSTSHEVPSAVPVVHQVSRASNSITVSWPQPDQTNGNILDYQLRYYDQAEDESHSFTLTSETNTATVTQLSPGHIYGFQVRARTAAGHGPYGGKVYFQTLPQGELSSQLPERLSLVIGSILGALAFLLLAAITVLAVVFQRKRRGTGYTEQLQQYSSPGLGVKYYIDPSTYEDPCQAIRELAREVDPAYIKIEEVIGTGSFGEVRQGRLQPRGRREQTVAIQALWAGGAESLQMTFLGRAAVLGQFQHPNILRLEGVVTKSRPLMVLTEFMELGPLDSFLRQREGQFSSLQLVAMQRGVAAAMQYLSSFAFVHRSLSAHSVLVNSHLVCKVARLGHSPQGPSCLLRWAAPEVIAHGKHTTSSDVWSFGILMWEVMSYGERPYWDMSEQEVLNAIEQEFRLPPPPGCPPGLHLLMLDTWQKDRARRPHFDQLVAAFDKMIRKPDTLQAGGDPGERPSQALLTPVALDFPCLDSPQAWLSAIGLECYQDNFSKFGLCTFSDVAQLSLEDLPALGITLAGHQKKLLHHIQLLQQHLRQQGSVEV
The source says:
(§1) We assessed the selectivity of members of this scaffold using the KINOMEscan methodology across a near comprehensive panel of 442 kinases [[18,27]].

The target of test [2] is T2, panel of 442 kinases (Homo sapiens, UniProt P10721, T670I/V559D).
T2 construct: purchased KINOMEscan
T2 sequence (P10721 26-976 V559D/T670I): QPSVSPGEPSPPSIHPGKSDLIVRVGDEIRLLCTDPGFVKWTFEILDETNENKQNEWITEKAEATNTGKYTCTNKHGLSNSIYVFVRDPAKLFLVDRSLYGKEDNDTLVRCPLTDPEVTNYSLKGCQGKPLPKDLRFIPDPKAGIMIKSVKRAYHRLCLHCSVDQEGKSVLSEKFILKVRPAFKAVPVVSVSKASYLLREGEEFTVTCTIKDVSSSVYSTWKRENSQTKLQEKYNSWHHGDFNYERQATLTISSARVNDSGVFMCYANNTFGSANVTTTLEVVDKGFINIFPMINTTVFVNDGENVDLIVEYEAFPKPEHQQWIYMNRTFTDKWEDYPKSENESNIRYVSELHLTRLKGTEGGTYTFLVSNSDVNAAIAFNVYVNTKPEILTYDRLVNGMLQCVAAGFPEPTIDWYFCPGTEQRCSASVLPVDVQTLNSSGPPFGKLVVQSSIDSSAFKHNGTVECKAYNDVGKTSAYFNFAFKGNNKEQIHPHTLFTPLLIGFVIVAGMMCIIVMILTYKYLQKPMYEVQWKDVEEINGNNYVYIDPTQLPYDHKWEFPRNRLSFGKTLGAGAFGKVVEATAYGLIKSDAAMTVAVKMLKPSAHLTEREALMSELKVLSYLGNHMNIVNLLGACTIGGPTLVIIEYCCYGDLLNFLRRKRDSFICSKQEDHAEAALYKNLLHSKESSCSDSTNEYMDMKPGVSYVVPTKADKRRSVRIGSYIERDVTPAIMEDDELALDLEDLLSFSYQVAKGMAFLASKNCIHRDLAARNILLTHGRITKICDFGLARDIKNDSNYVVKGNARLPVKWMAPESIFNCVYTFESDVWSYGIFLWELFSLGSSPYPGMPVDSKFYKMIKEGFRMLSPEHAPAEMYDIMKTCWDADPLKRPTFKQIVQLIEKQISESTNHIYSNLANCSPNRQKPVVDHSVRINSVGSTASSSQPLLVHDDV
From the text: as §1

Test [3] addresses T3, panel of 442 kinases (Homo sapiens, UniProt Q9P2K8, S808G).
T3 construct: purchased KINOMEscan
From the text: as §1

T3 sequence (Q9P2K8 whole entry S808G): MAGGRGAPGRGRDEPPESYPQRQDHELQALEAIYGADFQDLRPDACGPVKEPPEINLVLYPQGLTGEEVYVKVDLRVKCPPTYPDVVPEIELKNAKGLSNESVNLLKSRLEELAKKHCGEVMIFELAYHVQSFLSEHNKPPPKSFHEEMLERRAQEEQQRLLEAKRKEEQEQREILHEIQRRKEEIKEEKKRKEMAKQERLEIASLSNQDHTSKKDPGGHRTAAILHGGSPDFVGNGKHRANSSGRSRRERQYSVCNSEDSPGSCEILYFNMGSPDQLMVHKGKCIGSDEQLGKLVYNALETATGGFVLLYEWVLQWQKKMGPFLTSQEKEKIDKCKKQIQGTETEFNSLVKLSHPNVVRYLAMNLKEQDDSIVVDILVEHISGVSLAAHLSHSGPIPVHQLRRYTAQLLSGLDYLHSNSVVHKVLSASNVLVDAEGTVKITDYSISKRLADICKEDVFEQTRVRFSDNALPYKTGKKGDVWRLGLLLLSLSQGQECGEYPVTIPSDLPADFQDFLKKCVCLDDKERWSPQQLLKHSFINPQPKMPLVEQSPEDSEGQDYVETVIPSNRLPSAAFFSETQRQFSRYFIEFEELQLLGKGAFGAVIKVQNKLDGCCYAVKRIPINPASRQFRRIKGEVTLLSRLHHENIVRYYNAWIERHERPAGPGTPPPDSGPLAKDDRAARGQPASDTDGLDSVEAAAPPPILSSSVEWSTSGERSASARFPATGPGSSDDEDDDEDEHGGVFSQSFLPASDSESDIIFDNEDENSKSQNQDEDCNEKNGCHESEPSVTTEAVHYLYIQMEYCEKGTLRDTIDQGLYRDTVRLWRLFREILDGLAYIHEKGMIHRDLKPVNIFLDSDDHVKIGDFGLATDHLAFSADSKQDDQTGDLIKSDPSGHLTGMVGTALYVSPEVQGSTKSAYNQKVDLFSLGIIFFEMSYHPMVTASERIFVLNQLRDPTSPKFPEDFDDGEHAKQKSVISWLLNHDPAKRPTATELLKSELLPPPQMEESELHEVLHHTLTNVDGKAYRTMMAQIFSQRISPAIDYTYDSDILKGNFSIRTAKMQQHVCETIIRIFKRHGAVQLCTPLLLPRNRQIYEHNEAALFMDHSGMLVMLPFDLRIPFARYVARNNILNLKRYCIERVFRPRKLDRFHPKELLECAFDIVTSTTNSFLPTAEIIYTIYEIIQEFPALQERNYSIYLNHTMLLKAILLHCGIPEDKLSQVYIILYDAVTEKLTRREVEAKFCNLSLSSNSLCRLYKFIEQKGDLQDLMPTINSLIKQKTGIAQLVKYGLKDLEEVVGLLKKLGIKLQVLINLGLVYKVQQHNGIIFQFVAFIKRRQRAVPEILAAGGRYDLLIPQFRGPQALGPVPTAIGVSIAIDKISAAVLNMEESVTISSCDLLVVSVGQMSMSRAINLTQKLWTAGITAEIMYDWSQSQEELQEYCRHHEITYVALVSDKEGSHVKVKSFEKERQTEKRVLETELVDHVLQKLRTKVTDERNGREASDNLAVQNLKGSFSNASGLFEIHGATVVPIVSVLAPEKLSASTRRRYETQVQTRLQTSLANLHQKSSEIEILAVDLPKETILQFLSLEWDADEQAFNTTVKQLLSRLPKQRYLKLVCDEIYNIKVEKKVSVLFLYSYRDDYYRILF

Take `CCOc1cc(C(=O)N2CCC(N3CCN(C)CC3)CC2)ccc1Nc1ncc2c(n1)N(C1CCCC1)c1ccccc1C(=O)N2C` [Compound 26]: the “KINOMEscan: EPHB6” value at panel of 442 kinases [1] turned out to be 100. Moreover, on panel of 442 kinases [2], the “KINOMEscan: KIT(V559D,T670I)” value is 100. Also, the “KINOMEscan: GCN2(Kin.Dom.2,S808G)” value at panel of 442 kinases [3] amounted to 95.

As to `COc1cc(C(=O)N2CCC(N3CCN(C)CC3)CC2)ccc1Nc1ncc2c(n1)N1CCc3cccc(c31)C(=O)N2C` [Compound 24], the “KINOMEscan: EPHB6” value at panel of 442 kinases [1] was determined as 68. For the same compound, at panel of 442 kinases [3], the “KINOMEscan: GCN2(Kin.Dom.2,S808G)” value was 79.

Regarding `COc1cc(C(=O)N2CCC(N3CCN(C)CC3)CC2)ccc1Nc1ncc2c(n1)N(C)c1ccccc1C(=O)N2C` [15 (LRRK2-IN-1)], the “KINOMEscan: EPHB6” value at panel of 442 kinases [1] is on record as 31. On panel of 442 kinases [2], the “KINOMEscan: KIT(V559D,T670I)” value worked out at 81. Besides, the “KINOMEscan: GCN2(Kin.Dom.2,S808G)” value on panel of 442 kinases [3] was 95.

Consider `COc1cc(C(=O)N2CCC(N3CCN(C)CC3)CC2)ccc1Nc1ncc2c(n1)N(C1CCCC1)c1ccccc1C(=O)N2C` [Compound 25, 11-cyclopentyl-2-((2-methoxy-4-(4-(4-methylpiperazin-1-yl)piperidine-1-carbonyl)phenyl)amino)-5-methyl-5H-benzo[e]pyrimido[5,4-b][1,4]diazepin-6(11H)-one], for which the “KINOMEscan: EPHB6” value at panel of 442 kinases [1] came to 69. Further, on panel of 442 kinases [2], the “KINOMEscan: KIT(V559D,T670I)” value was 80. In addition, on panel of 442 kinases [3], the “KINOMEscan: GCN2(Kin.Dom.2,S808G)” value is given as 100.
